Source: patent publication US20250145665A1, “MACROCYCLIC PEPTIDES USEFUL AS MODULATORS OF TNF ALPHA” (Bristol-Myers Squibb Company, priority 2023, published 2025)
Like-named read-outs stand apart in the source and are kept apart here. Starred links: 1 amine or outer side, 2 acyl side, 3 side chain; linkers in the order of their positions; H or OH if unused. Positions of bridges follow the written chain, without caps; N, C: chain ends. Non-standard residues stand in square brackets, D forms with d. Residues, ends and D or L forms follow the SMILES beside them. *: point of attachment. Bip(4'-NHCO-C6H4-3-CH2COOH) = N[C@@H](Cc1ccc(-c2ccc(NC(=O)c3cccc(CC(=O)O)c3)cc2)cc1)C(=O)O; Bip(4'-NHCO-C6H4-4-CH2COOH) = N[C@@H](Cc1ccc(-c2ccc(NC(=O)c3ccc(CC(=O)O)cc3)cc2)cc1)C(=O)O; dArg(Nω-CH2C6H4-3-CH2Gua) = N=C(N)NCc1cccc(CNC(=N)NCCC[C@@H](N)C(=O)O)c1; Bip(4'-NH) = O=C([C@H](Cc1ccc(-c2ccc(N[*:3])cc2)cc1)N[*:1])[*:2]; dArg(ω-(3-HO-benzyl)) = N=C(NCCC[C@@H](N)C(=O)O)NCc1cccc(O)c1; Indazole3carbonyl(1-CH2COOH) = O=C(O)Cn1nc(C(=O)*)c2ccccc21; Bip(4'-COOH) = N[C@@H](Cc1ccc(-c2ccc(C(=O)O)cc2)cc1)C(=O)O; Indole3carbonyl(1-CH2COOH) = O=C(O)Cn1cc(C(=O)*)c2ccccc21; dArg(ω-Bn) = N=C(NCCC[C@@H](N)C(=O)O)NCc1ccccc1; Ala(morpholin-4-yl) = N[C@@H](CN1CCOCC1)C(=O)O; Benzoyl(3-OCH2COOH) = O=C(O)COc1cccc(C(=O)*)c1; Bip = N[C@@H](Cc1ccc(-c2ccccc2)cc1)C(=O)O; Cha = N[C@@H](CC1CCCCC1)C(=O)O; Tle = CC(C)(C)[C@H](N)C(=O)O; Sar = CNCC(=O)O

Target: TNFα (Homo sapiens, UniProt P01375)
Sequence (P01375 77-233 limits assumed): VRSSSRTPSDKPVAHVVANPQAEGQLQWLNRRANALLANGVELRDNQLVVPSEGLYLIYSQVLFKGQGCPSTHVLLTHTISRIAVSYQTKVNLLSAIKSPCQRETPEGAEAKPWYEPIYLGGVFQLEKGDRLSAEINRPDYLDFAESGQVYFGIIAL
Assay: TNF-Induced HEK-Blue Assay
Assay type: cell-based
[1] = HEK-Blue-CD40L cells, NF-kB-driven secreted alkaline phosphatase reporter, TNFα 0.5 ng/ml, 18 h, read-out: TNF induced HEK-Blue assay IC50 value

Compound	IC50 [1] [nM]	IC50 [nM]
CC(C)C[C@@H]1NC(=O)[C@H](CCCNC(=N)N)NC(=O)[C@H](C(C)C)NC(=O)[C@@H]2CCCN2C(=O)[C@H](C(C)C)NC(=O)[C@@H](CCCNC(=N)NCc2cccc(O)c2)NC(=O)[C@H](CC(=O)O)NC(=O)[C@@H]2CCCN2C(=O)CN(C)C(=O)[C@H](Cc2ccc(-c3ccc(NC(=O)c4cccc(CC(=O)O)c4)cc3)cc2)NC(=O)[C@H](Cc2ccc(-c3ccccc3)cc2)NC(=O)[C@H](CN2CCOCC2)NC(=O)CSC[C@@H](C(=O)NCC(N)=O)NC1=O [Example 566] ({CH2CO}-[Ala(morpholin-4-yl)][Bip][Bip(4'-NHCO-C6H4-3-CH2COOH)][Sar]PD[dArg(ω-(3-HO-benzyl))]VPVRLCG-NH2; thioether N-13)	< 50	
CC(C)C[C@@H]1NC(=O)[C@H](CCCNC(=N)N)NC(=O)[C@H](C(C)C)NC(=O)[C@@H]2CCCN2C(=O)[C@H](C(C)C)NC(=O)[C@@H](CCCNC(=N)NCc2cccc(O)c2)NC(=O)[C@H](CC(=O)O)NC(=O)[C@@H]2CCCN2C(=O)CN(C)C(=O)[C@H](Cc2ccc(-c3ccc(NC(=O)c4ccc(CC(=O)O)cc4)cc3)cc2)NC(=O)[C@H](Cc2ccc(-c3ccccc3)cc2)NC(=O)[C@H](CN2CCOCC2)NC(=O)CSC[C@@H](C(=O)NCC(N)=O)NC1=O [Example 567] ({CH2CO}-[Ala(morpholin-4-yl)][Bip][Bip(4'-NHCO-C6H4-4-CH2COOH)][Sar]PD[dArg(ω-(3-HO-benzyl))]VPVRLCG-NH2; thioether N-13)	< 50	
CC(C)C[C@@H]1NC(=O)[C@H](CCCNC(=N)N)NC(=O)[C@H](C(C)C)NC(=O)[C@@H]2CCCN2C(=O)[C@H](C(C)C)NC(=O)[C@@H](CCCNC(=N)NCc2cccc(O)c2)NC(=O)[C@H](CC(=O)O)NC(=O)[C@@H]2CCCN2C(=O)CN(C)C(=O)[C@H](Cc2ccc(-c3ccc(NC(=O)c4cccc(OCC(=O)O)c4)cc3)cc2)NC(=O)[C@H](Cc2ccc(-c3ccccc3)cc2)NC(=O)[C@H](CN2CCOCC2)NC(=O)CSC[C@@H](C(=O)NCC(N)=O)NC1=O [Example 568] ({CH2CO}-[Ala(morpholin-4-yl)][Bip][Bip(4'-NH)](Benzoyl(3-OCH2COOH))[Sar]PD[dArg(ω-(3-HO-benzyl))]VPVRLCG-NH2; thioether N-13)	< 50	
CC(C)C[C@@H]1NC(=O)[C@H](CCCNC(=N)N)NC(=O)[C@H](C(C)C)NC(=O)[C@@H]2CCCN2C(=O)[C@H](C(C)C)NC(=O)[C@@H](CCCNC(=N)NCc2cccc(CNC(=N)N)c2)NC(=O)[C@H](CC(=O)O)NC(=O)[C@@H]2CCCN2C(=O)CN(C)C(=O)[C@H](Cc2ccc(-c3ccc(NC(=O)c4cn(CC(=O)O)c5ccccc45)cc3)cc2)NC(=O)[C@H](Cc2ccc(-c3ccccc3)cc2)NC(=O)[C@H](CN2CCOCC2)NC(=O)CSC[C@@H](C(=O)NCC(N)=O)NC1=O [Example 569] ({CH2CO}-[Ala(morpholin-4-yl)][Bip][Bip(4'-NH)](Indole3carbonyl(1-CH2COOH))[Sar]PD[dArg(Nω-CH2C6H4-3-CH2Gua)]VPVRLCG-NH2; thioether N-13)		< 50
CC(C)C[C@@H]1NC(=O)[C@H](CCCNC(=N)N)NC(=O)[C@H](C(C)C)NC(=O)[C@@H]2CCCN2C(=O)[C@H](C(C)C)NC(=O)[C@@H](CCCNC(=N)NCc2cccc(CNC(=N)N)c2)NC(=O)[C@H](CC(=O)O)NC(=O)[C@@H]2CCCN2C(=O)CN(C)C(=O)[C@H](Cc2ccc(-c3ccc(NC(=O)c4cccc(CC(=O)O)c4)cc3)cc2)NC(=O)[C@H](Cc2ccc(-c3ccccc3)cc2)NC(=O)[C@H](CN2CCOCC2)NC(=O)CSC[C@@H](C(=O)NCC(N)=O)NC1=O [Example 570] ({CH2CO}-[Ala(morpholin-4-yl)][Bip][Bip(4'-NHCO-C6H4-3-CH2COOH)][Sar]PD[dArg(Nω-CH2C6H4-3-CH2Gua)]VPVRLCG-NH2; thioether N-13)	50 to 200	
CC(C)C[C@@H]1NC(=O)[C@H](CCCNC(=N)N)NC(=O)[C@H](C(C)C)NC(=O)[C@@H]2CCCN2C(=O)[C@H](C(C)C)NC(=O)[C@@H](CCCNC(=N)NCc2cccc(CNC(=N)N)c2)NC(=O)[C@H](CC(=O)O)NC(=O)[C@@H]2CCCN2C(=O)CN(C)C(=O)[C@H](Cc2ccc(-c3ccc(NC(=O)c4ccc(CC(=O)O)cc4)cc3)cc2)NC(=O)[C@H](Cc2ccc(-c3ccccc3)cc2)NC(=O)[C@H](CN2CCOCC2)NC(=O)CSC[C@@H](C(=O)NCC(N)=O)NC1=O [Example 571] ({CH2CO}-[Ala(morpholin-4-yl)][Bip][Bip(4'-NHCO-C6H4-4-CH2COOH)][Sar]PD[dArg(Nω-CH2C6H4-3-CH2Gua)]VPVRLCG-NH2; thioether N-13)	50 to 200	
CC(C)C[C@@H]1NC(=O)[C@H](CCCNC(=N)N)NC(=O)[C@H](C(C)C)NC(=O)[C@@H]2CCCN2C(=O)[C@H](C(C)C)NC(=O)[C@@H](CCCNC(=N)NCc2cccc(CNC(=N)N)c2)NC(=O)[C@H](CC(=O)O)NC(=O)[C@@H]2CCCN2C(=O)CN(C)C(=O)[C@H](Cc2ccc(-c3ccc(NC(=O)c4cccc(OCC(=O)O)c4)cc3)cc2)NC(=O)[C@H](Cc2ccc(-c3ccccc3)cc2)NC(=O)[C@H](CN2CCOCC2)NC(=O)CSC[C@@H](C(=O)NCC(N)=O)NC1=O [Example 572] ({CH2CO}-[Ala(morpholin-4-yl)][Bip][Bip(4'-NH)](Benzoyl(3-OCH2COOH))[Sar]PD[dArg(Nω-CH2C6H4-3-CH2Gua)]VPVRLCG-NH2; thioether N-13)	< 50	
CC[C@H](C)[C@@H]1NC(=O)[C@@H](CCCNC(=N)N)NC(=O)[C@H](CC(=O)O)NC(=O)[C@@H]2CCCN2C(=O)CN(C)C(=O)[C@H](Cc2ccc(-c3ccc(NC(=O)c4cccc(OCC(=O)O)c4)cc3)cc2)NC(=O)[C@H](Cc2ccc(-c3ccc(C(=O)O)cc3)cc2)NC(=O)[C@H](CC2CCCCC2)NC(=O)CSC[C@@H](C(=O)NCC(N)=O)NC(=O)[C@H](CC(C)C)NC(=O)[C@H](Cc2cnc[nH]2)NC(=O)[C@H](C(C)C)NC(=O)[C@@H]2CCCN2C1=O [Example 573] ({CH2CO}-[Cha][Bip(4'-COOH)][Bip(4'-NH)](Benzoyl(3-OCH2COOH))[Sar]PD[dR]IPVHLCG-NH2; thioether N-13)	50 to 200	
CC[C@H](C)[C@@H]1NC(=O)[C@@H](CCCNC(=N)N)NC(=O)[C@H](CC(=O)O)NC(=O)[C@@H]2CCCN2C(=O)CN(C)C(=O)[C@H](Cc2ccc(-c3ccc(NC(=O)c4cccc(OCC(=O)O)c4)cc3)cc2)NC(=O)[C@H](Cc2ccc(-c3ccc(C(=O)O)cc3)cc2)NC(=O)[C@H](C(C)(C)C)NC(=O)CSC[C@@H](C(=O)NCC(N)=O)NC(=O)[C@H](CC(C)C)NC(=O)[C@H](Cc2cnc[nH]2)NC(=O)[C@H](C(C)C)NC(=O)[C@@H]2CCCN2C1=O [Example 574] ({CH2CO}-[Tle][Bip(4'-COOH)][Bip(4'-NH)](Benzoyl(3-OCH2COOH))[Sar]PD[dR]IPVHLCG-NH2; thioether N-13)	< 50	
CC[C@H](C)[C@@H]1NC(=O)[C@@H](CCCNC(=N)N)NC(=O)[C@H](CC(=O)O)NC(=O)[C@@H]2CCCN2C(=O)CN(C)C(=O)[C@H](Cc2ccc(-c3ccc(NC(=O)c4cccc(CC(=O)O)c4)cc3)cc2)NC(=O)[C@H](Cc2ccc(-c3ccc(C(=O)O)cc3)cc2)NC(=O)[C@H](C(C)(C)C)NC(=O)CSC[C@@H](C(=O)NCC(N)=O)NC(=O)[C@H](CC(C)C)NC(=O)[C@H](Cc2cnc[nH]2)NC(=O)[C@H](C(C)C)NC(=O)[C@@H]2CCCN2C1=O [Example 575] ({CH2CO}-[Tle][Bip(4'-COOH)][Bip(4'-NHCO-C6H4-3-CH2COOH)][Sar]PD[dR]IPVHLCG-NH2; thioether N-13)	50 to 200	
CC[C@H](C)[C@@H]1NC(=O)[C@@H](CCCNC(=N)N)NC(=O)[C@H](CC(=O)O)NC(=O)[C@@H]2CCCN2C(=O)CN(C)C(=O)[C@H](Cc2ccc(-c3ccc(NC(=O)c4ccc(CC(=O)O)cc4)cc3)cc2)NC(=O)[C@H](Cc2ccc(-c3ccc(C(=O)O)cc3)cc2)NC(=O)[C@H](C(C)(C)C)NC(=O)CSC[C@@H](C(=O)NCC(N)=O)NC(=O)[C@H](CC(C)C)NC(=O)[C@H](Cc2cnc[nH]2)NC(=O)[C@H](C(C)C)NC(=O)[C@@H]2CCCN2C1=O [Example 576] ({CH2CO}-[Tle][Bip(4'-COOH)][Bip(4'-NHCO-C6H4-4-CH2COOH)][Sar]PD[dR]IPVHLCG-NH2; thioether N-13)	50 to 200	
CC[C@H](C)[C@@H]1NC(=O)[C@@H](CCCNC(=N)N)NC(=O)[C@H](CC(=O)O)NC(=O)[C@@H]2CCCN2C(=O)CN(C)C(=O)[C@H](Cc2ccc(-c3ccc(NC(=O)c4cccc(OCC(=O)O)c4)cc3)cc2)NC(=O)[C@H](Cc2ccc(-c3ccc(C(=O)O)cc3)cc2)NC(=O)[C@H](CN2CCOCC2)NC(=O)CSC[C@@H](C(=O)NCC(N)=O)NC(=O)[C@H](CC(C)C)NC(=O)[C@H](Cc2cnc[nH]2)NC(=O)[C@H](C(C)C)NC(=O)[C@@H]2CCCN2C1=O [Example 577] ({CH2CO}-[Ala(morpholin-4-yl)][Bip(4'-COOH)][Bip(4'-NH)](Benzoyl(3-OCH2COOH))[Sar]PD[dR]IPVHLCG-NH2; thioether N-13)	50 to 200	
CC[C@H](C)[C@@H]1NC(=O)[C@@H](CCCNC(=N)N)NC(=O)[C@H](CC(=O)O)NC(=O)[C@@H]2CCCN2C(=O)CN(C)C(=O)[C@H](Cc2ccc(-c3ccc(NC(=O)c4cccc(CC(=O)O)c4)cc3)cc2)NC(=O)[C@H](Cc2ccc(-c3ccc(C(=O)O)cc3)cc2)NC(=O)[C@H](CN2CCOCC2)NC(=O)CSC[C@@H](C(=O)NCC(N)=O)NC(=O)[C@H](CC(C)C)NC(=O)[C@H](Cc2cnc[nH]2)NC(=O)[C@H](C(C)C)NC(=O)[C@@H]2CCCN2C1=O [Example 578] ({CH2CO}-[Ala(morpholin-4-yl)][Bip(4'-COOH)][Bip(4'-NHCO-C6H4-3-CH2COOH)][Sar]PD[dR]IPVHLCG-NH2; thioether N-13)	< 50	
CC(C)C[C@@H]1NC(=O)[C@H](Cc2ccc(O)cc2)NC(=O)[C@H](C(C)C)NC(=O)[C@@H]2CCCN2C(=O)[C@H](C(C)C)NC(=O)[C@@H](CCCNC(=N)NCc2ccccc2)NC(=O)[C@H](CC(=O)O)NC(=O)[C@@H]2CCCN2C(=O)CN(C)C(=O)[C@H](Cc2ccc(-c3ccc(NC(=O)c4nn(CC(=O)O)c5ccccc45)cc3)cc2)NC(=O)[C@H](Cc2ccc(-c3ccc(C(=O)O)cc3)cc2)NC(=O)[C@H](CC2CCCCC2)NC(=O)CSC[C@@H](C(=O)NCC(N)=O)NC1=O [Example 579] ({CH2CO}-[Cha][Bip(4'-COOH)][Bip(4'-NH)](Indazole3carbonyl(1-CH2COOH))[Sar]PD[dArg(ω-Bn)]VPVYLCG-NH2; thioether N-13)		< 50
